Measured values: PMC12031237, “Toxicity Assessment of (4Z)-Lachnophyllum and (4Z,8Z)-Matricaria Lactones: Implications for Environmental Safety of Bioherbicides” (Toxins, 2025)
Values after ≈ are worked out from the molar mass of the structure shown. Like-named read-outs stand apart in the source and are kept apart here.

Tests used:
D. magna [1] = details: 48 h, cited from earlier work
D. magna [2] = assay: Literature acute toxicity of herbicides to D. magna; assay type: in vivo, Daphnia magna
Source text: (§1) Table 3 EC50 values from the literature for the aquatic test species exposed to multiple commonly used herbicides. | column: Hazard Ranking

A. fischeri [3] = details: 30 min, cited from earlier work
R. subcapitata [4] = details: cited from earlier work
R. subcapitata [5] = assay: Literature growth inhibition of R. subcapitata by herbicides; assay type: cell-based, Raphidocelis subcapitata
Source text: as §1

A. fischeri [6] = assay: Literature acute toxicity of herbicides to A. fischeri; assay type: cell-based, Aliivibrio fischeri
Source text: as §1

C. elegans = assay: Nematode survival bioassay in soil, ASTM E2172-01; assay type: in vivo; details: 24 h exposure, positive control
Procedure: The nematode bioassay was carried out using the Caenorhabditis elegans wild-type strain N2, Bristol variant, according to the ASTM E2172—01 Standard Method (2014). Culture was maintained on NGM (nematode growth media) plates seeded with Escherichia coli (uracil-deficient OP50 strain) and stored at 20 °C. The tests were conducted using age-synchronized adult nematodes, obtained by lysing gravid nematodes with a bleaching solution (10 g/L NaOH, 10.5 g/L NaOCl), followed by centrifugation and washing with an M9 mineral medium (2.2 mM KH2PO4, 4.2 mM Na2HPO4, 85.6 mM NaCl, and 1 mM MgSO4). The synchronized nematodes were then transferred to NGM agar plates and left to recover overnight.
Soil samples (2.33 g) were hydrated to 35–45% of their dry weight using K-medium in centrifuge tubes. Ten worms were transferred to each tube and exposed to the soil samples for 24 h at 20 °C. […] Treatments were performed in triplicate, with worms kept unfed during the exposure period. Nematodes were extracted by centrifugation (2000 rpm, 2 min) using silica gel (Ludox TM 50, Sigma-Aldrich, St. Louis, MO, USA) with a specific density of 1.13 g/mL. The supernatant was then transferred to 100 mm glass Petri dishes and washed with Keller (K) medium. Extracted individuals were counted under a microscope (40× magnification), with mortality as the measured endpoint. Test validity required a minimum of 80% nematode recovery and 90% survival in the control group.

A. fischeri [7] = assay: Bioluminescence (light) inhibition test, ISO 11348-3; details: 30 min exposure; standard error in brackets, n = 3
Procedure: The bioluminescence inhibition test (30 min) was detected with the A. fischeri (NRRLB-11177) supplied by MicroBioTest, Gent, Belgium, and according to ISO 11348-3 [59]. The bioluminescence was determined by the luminometer Microtox (Model 500 analyzer, New Castle, DE, USA) at 490 nm. To provide the required osmotic pressure for the bacterium, the stock solution was diluted to perform the test in saline water solution (2% sodium chloride, NaCl). The concentrations tested correspond to 0.19, 0.39, 0.78, 1.56, and 3.12 mg L^−^1 and a negative control of 0 mg L^−^1. Toxicity tests were performed in triplicate with a control, and the percentage luminescence inhibition was expressed as the ratio of the decrease in bacterial light production to the remaining light.
(§2) Data analysis was conducted using RStudio for Windows (Version 2024.09.1). Dose–response models were applied to estimate the effective concentrations (EC10 and EC50) for the tested endpoints using the “drc” package. For D. magna, the data were modeled with a binomial log-logistic approach, whereas data for R. subcapitata, A. fischeri and L. sativum were fitted to log-logistic models with the upper limit constrained to 100. Furthermore, to ensure assay sensitivity and validity, a positive control exposed to potassium dichromate for the aquatic species and copper chloride for C. elegans was tested under the same experimental conditions.

D. magna [8] = assay: Crustacean immobility acute test, ISO 6341; assay type: in vivo, Daphnia magna
Procedure: The immobility acute test (48 h) with D. magna was conducted according to ISO 6341 [60]. D. magna was selected from laboratory stock cultures at the Hygiene Laboratory of the Department of Biology of the University of Naples Federico II, placed in ISO medium, and fed daily with the microalgae R. subcapitata. For the test, five neonates (third brood, <24 h old) were exposed in 10 mL of ISO medium to the following corresponding concentrations: 0.22, 0.43, 0.86, 1.73, 3.46, 6.91, 13.83, 27.65, and 55.30 mg L^−^1 and a negative control of 0 mg L^−^1. Each concentration had 4 replicates, and immobility was assessed after 24 and 48 h of exposure.
as §2

R. subcapitata [9] = assay: Algal growth inhibition test, ISO 8692; details: positive control
Procedure: The algal growth inhibition test (72 h) with R. subcapitata was carried out according to ISO 8692 [58]. The algal density was determined by spectrophotometric analysis (DR5000, Hach Lange GbH, Weinheim, Germany) at 670 nm. The concentrations tested correspond to 0.19, 0.39, 0.78, 1.56, and 3.12 mg L^−^1 and a negative control of 0 mg L^−^1. The growth inhibition was calculated as the difference in growth at the end of the test of the sample and the control group. Toxicity tests were carried out in triplicate.
as §2

[10] = GHS ranking of 48 h EC50 of ref 49
[11] = GHS ranking of 72 h EC50 of ref 49
[12] = GHS ranking of 30 min EC50 of ref 49
[13] = GHS ranking of 96 h EC50 of ref 47

For `CCNc1nc(Cl)nc(NC(C)C)n1` [Atrazine], the EC50 (D. magna [1]; ref 49) is listed as 0.05 mg/L (≈ 0.232 µM), the “Hazard Ranking” value (D. magna [2]; [10]) is listed as “**** (Very toxic (≤1 mg L^−1))” and the EC50 (A. fischeri [3]; ref 49) is listed as 39.80 µg/mL (≈ 185 µM). The EC50 (R. subcapitata [4]; 72 h) was 0.02 µg/mL (≈ 0.0927 µM), the “Hazard Ranking” value (R. subcapitata [5]; [11]) was “**** (Very toxic (≤1 mg L^−1))” and the “Hazard Ranking” value (A. fischeri [6]; [12]) was “** (harmful: (<10 mg L^−1 ≤ 100 mg L^−1))”.
For `O=C(O)CNCP(=O)(O)O` [Glyphosate], the EC50 (D. magna [1]; average of multiple tests performed, given as isopropylamine salt) is given as 4.30 °° mg L^−1, the EC50 (D. magna [1]; average of multiple tests performed, rounded up (formulation commercially available)) is given as 7.15 ° mg L^−1 and the EC50 (D. magna [1]; ref 40) is given as 4.20 mg/L (≈ 24.8 µM). For the same compound, the EC50 (D. magna [1]; ref 41) was 8.90 mg/L (≈ 52.6 µM), the LC50 (D. magna [1]; ref 42) was 21.34 µg/mL (≈ 126 µM) and the LC50 (D. magna [1]; ref 43) was 190.0 µg/mL (≈ 1120 µM). The LC50 (D. magna [1]; ref 44) was 0.012 µg/mL (≈ 0.071 µM), the LC50 (D. magna [1]; ref 45) was 9.34 µg/mL (≈ 55.2 µM) and the LC50 (D. magna [1]; ref 46) was 11.68 µg/mL (≈ 69.1 µM). The “Hazard Ranking” value (D. magna [2]; GHS ranking of 48 h EC50 (commercial formulation) of ref 39) was “*** (toxic (<1 mg L^−1 ≤ 10 mg L^−1))”, the “Hazard Ranking” value (D. magna [2]; GHS ranking of 48 h EC50 (isopropylamine salt) of ref 39) was “*** (toxic (<1 mg L^−1 ≤ 10 mg L^−1))” and the “Hazard Ranking” value (D. magna [2]; GHS ranking of 48 h EC50 of ref 40) was “*** (toxic (<1 mg L^−1 ≤ 10 mg L^−1))”. For the same compound, the “Hazard Ranking” value (D. magna [2]; GHS ranking of 48 h EC50 of ref 41) was “*** (toxic (<1 mg L^−1 ≤ 10 mg L^−1))”, the “Hazard Ranking” value (D. magna [2]; GHS ranking of 48 h LC50 of ref 42) was “** (harmful: (<10 mg L^−1 ≤ 100 mg L^−1))” and the “Hazard Ranking” value (D. magna [2]; GHS ranking of 48 h LC50 of ref 43) was “* (not harmful: (>100 mg L^−1))”. The “Hazard Ranking” value (D. magna [2]; GHS ranking of 48 h LC50 of ref 44) was “**** (Very toxic (≤1 mg L^−1))”, the “Hazard Ranking” value (D. magna [2]; GHS ranking of 48 h LC50 of ref 45) was “*** (toxic (<1 mg L^−1 ≤ 10 mg L^−1))” and the “Hazard Ranking” value (D. magna [2]; GHS ranking of 48 h LC50 of ref 46) was “** (harmful: (<10 mg L^−1 ≤ 100 mg L^−1))”. The EC50 (A. fischeri [3]; ref 48) was 2.93 µg/mL (≈ 17.3 µM), the EC50 (R. subcapitata [4]; 96 h) was 5.55 µg/mL (≈ 32.8 µM) and the “Hazard Ranking” value (R. subcapitata [5]; [13]) was “*** (toxic (<1 mg L^−1 ≤ 10 mg L^−1))”. The “Hazard Ranking” value (A. fischeri [6]; GHS ranking of 30 min EC50 of ref 48) was “*** (toxic (<1 mg L^−1 ≤ 10 mg L^−1))”.
In the case of `CCc1cccc(C)c1N(C(=O)CCl)C(C)COC` (stereo not shown) [Metolachlor], the EC50 (D. magna [1]; ref 49) is listed as 23.50 mg/L (≈ 82.8 µM), the “Hazard Ranking” value (D. magna [2]; [10]) is listed as “** (harmful: (<10 mg L^−1 ≤ 100 mg L^−1))” and the EC50 (A. fischeri [3]; ref 49) is listed as 17.00 µg/mL (≈ 59.9 µM). The EC50 (A. fischeri [3]; ref 50) was 265.00 µg/mL (≈ 934 µM), the EC50 (A. fischeri [3]; ref 51) was 214.85 µg/mL (≈ 757 µM) and the EC50 (R. subcapitata [4]; 72 h) was 0.055 µg/mL (≈ 0.194 µM). The EC50 (R. subcapitata [4]; 96 h) was 5.51 µg/mL (≈ 19.4 µM), the “Hazard Ranking” value (R. subcapitata [5]; [11]) was “**** (Very toxic (≤1 mg L^−1))” and the “Hazard Ranking” value (R. subcapitata [5]; [13]) was “*** (toxic (<1 mg L^−1 ≤ 10 mg L^−1))”. The “Hazard Ranking” value (A. fischeri [6]; [12]) was “** (harmful: (<10 mg L^−1 ≤ 100 mg L^−1))”, the “Hazard Ranking” value (A. fischeri [6]; GHS ranking of 30 min EC50 of ref 50) was “* (not harmful: (>100 mg L^−1))” and the “Hazard Ranking” value (A. fischeri [6]; GHS ranking of 30 min EC50 of ref 51) was “* (not harmful: (>100 mg L^−1))”.
In the case of `CCC(=O)Nc1ccc(Cl)c(Cl)c1` [Propanil], the EC50 (D. magna [1]; ref 49) is listed as 2.00 mg/L (≈ 9.17 µM), the “Hazard Ranking” value (D. magna [2]; [10]) is listed as “*** (toxic (<1 mg L^−1 ≤ 10 mg L^−1))” and the EC50 (R. subcapitata [4]; 72 h) is listed as 0.05 µg/mL (≈ 0.229 µM). The “Hazard Ranking” value (R. subcapitata [5]; [11]) was “**** (Very toxic (≤1 mg L^−1))”.
`[Cl][Cu][Cl]` [copper chloride, reference compound] showed an EC50 (C. elegans) of 42.37 µg/mL.
For `[K+].[K+].[O]=[Cr](=[O])([O-])[O][Cr](=[O])(=[O])[O-]` [potassium dichromate, reference compound], the “EC50 (light inhibition)” value (A. fischeri [7]) was 3.730 µg/mL, the “EC50 (immobilization)” value (D. magna [8]; 24 h exposure) was 10.501 µg/mL and the “EC50 (immobilization)” value (D. magna [8]; 48 h exposure) was 5.66 µg/mL. The “EC50 (growth inhibition)” value (R. subcapitata [9]) was 0.987 µg/mL.
